Source: PubChem BioAssay (NCI)
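Tested at 5 concentrations; 48 h exposure; 96-well plates; endpoints linearly interpolated, else capped at highest concentration. TGI: total growth inhibition.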

Experiments:
Test in all cases: NCI anticancer screen, dose series, 48 h
[1] = test system: SK-OV-3 ovarian
[2] = test system: OVCAR-4 ovarian
[3] = test system: BT-549 breast
[4] = test system: DMS 114 small cell lung
[5] = test system: M19-MEL melanoma
[6] = test system: LOX IMVI melanoma
[7] = test system: DU-145 prostate
[8] = test system: SW-620 colon
[9] = test system: SF-539 CNS
[10] = test system: TK-10 renal
[11] = test system: IGROV1 ovarian
[12] = test system: MDA-MB-231 breast
[13] = test system: M14 melanoma
[14] = test system: PC-3 prostate
[15] = test system: MDA-MB-435
[16] = test system: EKVX NSCLC
[17] = test system: LXFL 529 NSCLC
[18] = test system: SK-MEL-5 melanoma
[19] = test system: A498 renal
[20] = test system: HOP-92 NSCLC
[21] = test system: COLO 205 colon
[22] = test system: U251 CNS
[23] = test system: RXF 393 renal
[24] = test system: SK-MEL-28 melanoma
[25] = test system: MOLT-4 leukemia
[26] = test system: CAKI-1 renal
[27] = test system: 786-0 renal
[28] = test system: HT29 colon
[29] = test system: XF 498 CNS
[30] = test system: SN12C renal
[31] = test system: NCI-H522 lung
[32] = test system: HS 578T breast
[33] = test system: NCI-H460 lung
[34] = test system: DMS 273 small cell lung
[35] = test system: MCF7 breast
[36] = test system: HCC-2998 colon
[37] = test system: SF-268 CNS
[38] = test system: MALME-3M melanoma
[39] = test system: SNB-75 CNS
[40] = test system: CCRF-CEM leukemia
[41] = test system: ACHN renal
[42] = test system: HCT-15 colon
[43] = test system: NCI-H226 lung
[44] = test system: SF-295 CNS
[45] = test system: UO-31 renal
[46] = test system: UACC-62 melanoma
[47] = test system: OVCAR-8 ovarian
[48] = test system: HOP-62 NSCLC
[49] = test system: KM12 colon
[50] = test system: K-562 leukemia
[51] = test system: NCI-H23 lung
[52] = test system: DLD-1 colon
[53] = test system: NCI/ADR-RES ovarian
[54] = test system: RPMI-8226 leukemia
[55] = test system: MDA-N
[56] = test system: T-47D breast
[57] = test system: OVCAR-3 ovarian
[58] = test system: OVCAR-5 ovarian
[59] = test system: HOP-18 NSCLC
[60] = test system: HCT-116 colon
[61] = test system: A549 NSCLC
[62] = test system: KM20L2 colon
[63] = test system: SR leukemia
[64] = test system: UACC-257 melanoma
[65] = test system: HL-60(TB) leukemia
[66] = test system: SNB-19 CNS
[67] = test system: SK-MEL-2 melanoma

Compound: COc1ccc(/C=c2/s/c(=C(\C#N)c3nc4ccccc4[nH]3)n(-c3ccccc3)c2=O)cc1
- TGI [1]: 71.6 µM
- TGI [2]: 28.1 µM
- TGI [3]: 54.8 µM
- TGI [4]: > 100 µM
- TGI [5]: > 100 µM
- TGI [6]: > 100 µM
- TGI [7]: > 100 µM
- TGI [8]: > 58.9 µM
- TGI [9]: > 61.5 µM
- TGI [10]: > 100 µM
- TGI [11]: > 100 µM
- TGI [12]: 49.5 µM
- TGI [13]: > 100 µM
- TGI [14]: 67.3 µM
- TGI [15]: > 100 µM
- TGI [16]: > 100 µM
- TGI [17]: > 100 µM
- TGI [18]: > 100 µM
- TGI [19]: > 76.5 µM
- TGI [20]: 37.7 µM
- TGI [21]: > 100 µM
- TGI [22]: > 100 µM
- TGI [23]: > 100 µM
- TGI [24]: > 100 µM
- TGI [25]: > 100 µM
- TGI [26]: > 100 µM
- TGI [27]: > 42.1 µM
- TGI [28]: 24.7 µM
- TGI [29]: 88.6 µM
- TGI [30]: > 100 µM
- TGI [31]: > 100 µM
- TGI [32]: 22.4 µM
- TGI [33]: > 74.9 µM
- TGI [34]: > 100 µM
- TGI [35]: > 100 µM
- TGI [36]: > 100 µM
- TGI [37]: > 100 µM
- TGI [38]: > 88.6 µM
- TGI [39]: > 68.8 µM
- TGI [40]: > 100 µM
- TGI [41]: > 100 µM
- TGI [42]: > 100 µM
- TGI [43]: 92.7 µM
- TGI [44]: > 100 µM
- TGI [45]: > 100 µM
- TGI [46]: > 47.5 µM
- TGI [47]: 51 µM
- TGI [48]: > 54 µM
- TGI [49]: > 100 µM
- TGI [50]: > 100 µM
- TGI [51]: > 63.5 µM
- TGI [52]: > 100 µM
- TGI [53]: 20.3 µM
- TGI [54]: > 100 µM
- TGI [55]: > 100 µM
- TGI [56]: > 100 µM
- TGI [57]: > 75.3 µM
- TGI [58]: > 100 µM
- TGI [59]: 79 µM
- TGI [60]: > 55.7 µM
- TGI [61]: > 100 µM
- TGI [62]: > 100 µM
- TGI [63]: > 100 µM
- TGI [64]: > 100 µM
- TGI [65]: > 100 µM
- TGI [66]: > 100 µM
- TGI [67]: > 100 µM

Compound: O=C(O)CNS(=O)(=O)c1ccc(NC(=O)c2ccccc2[N+](=O)[O-])cc1
- TGI [1]: > 100 µM
- TGI [2]: > 100 µM
- TGI [5]: > 100 µM
- TGI [6]: > 100 µM
- TGI [8]: > 100 µM
- TGI [9]: > 100 µM
- TGI [10]: > 100 µM
- TGI [11]: > 100 µM
- TGI [13]: > 100 µM
- TGI [16]: > 100 µM
- TGI [17]: > 100 µM
- TGI [18]: > 100 µM
- TGI [19]: > 100 µM
- TGI [20]: > 100 µM
- TGI [21]: > 100 µM
- TGI [22]: > 100 µM
- TGI [23]: > 100 µM
- TGI [24]: > 100 µM
- TGI [25]: > 100 µM
- TGI [26]: > 100 µM
- TGI [27]: > 100 µM
- TGI [28]: > 100 µM
- TGI [29]: > 100 µM
- TGI [30]: > 100 µM
- TGI [31]: > 100 µM
- TGI [33]: > 100 µM
- TGI [34]: > 100 µM
- TGI [37]: > 100 µM
- TGI [38]: > 100 µM
- TGI [39]: > 100 µM
- TGI [40]: > 100 µM
- TGI [41]: > 100 µM
- TGI [42]: > 100 µM
- TGI [45]: > 100 µM
- TGI [46]: > 100 µM
- TGI [47]: > 100 µM
- TGI [50]: > 100 µM
- TGI [51]: > 100 µM
- TGI [52]: > 100 µM
- TGI [54]: > 100 µM
- TGI [58]: > 100 µM
- TGI [59]: > 100 µM
- TGI [61]: > 100 µM
- TGI [62]: > 100 µM
- TGI [64]: > 100 µM
- TGI [65]: > 100 µM
- TGI [66]: > 100 µM
- TGI [67]: > 100 µM

Compound: C[C@@H](CC(O)C1OC1(C)C)[C@@H]1CC[C@]2(C)C3=CCC4C(C)(C)C(O)CC[C@]4(C)C3CCC12C (some centres undefined)
- TGI [1]: 58.9 µM
- TGI [2]: > 100 µM
- TGI [5]: 49.9 µM
- TGI [6]: > 100 µM
- TGI [8]: > 100 µM
- TGI [9]: 54.4 µM
- TGI [10]: 61.6 µM
- TGI [11]: > 100 µM
- TGI [13]: 42.1 µM
- TGI [16]: > 100 µM
- TGI [17]: 25.6 µM
- TGI [19]: 77.3 µM
- TGI [20]: 41.9 µM
- TGI [21]: 60.7 µM
- TGI [22]: > 100 µM
- TGI [23]: 42.1 µM
- TGI [24]: 41.9 µM
- TGI [25]: > 100 µM
- TGI [27]: 33.9 µM
- TGI [28]: 24.8 µM
- TGI [29]: 46.4 µM
- TGI [30]: > 100 µM
- TGI [31]: 32.6 µM
- TGI [33]: > 100 µM
- TGI [34]: 29.2 µM
- TGI [36]: > 100 µM
- TGI [37]: 85.4 µM
- TGI [38]: 31.1 µM
- TGI [40]: > 100 µM
- TGI [41]: 88.8 µM
- TGI [42]: > 100 µM
- TGI [43]: 45.3 µM
- TGI [44]: 40.8 µM
- TGI [45]: 63.5 µM
- TGI [46]: 33.6 µM
- TGI [47]: > 100 µM
- TGI [48]: > 100 µM
- TGI [49]: > 100 µM
- TGI [50]: 73.1 µM
- TGI [51]: 75.4 µM
- TGI [52]: > 100 µM
- TGI [54]: > 100 µM
- TGI [57]: > 100 µM
- TGI [58]: > 100 µM
- TGI [59]: 80.7 µM
- TGI [60]: 31.3 µM
- TGI [61]: 32.9 µM
- TGI [62]: 48.6 µM
- TGI [63]: > 100 µM
- TGI [64]: 41.2 µM
- TGI [65]: 24.9 µM
- TGI [66]: > 100 µM
- TGI [67]: 57.4 µM

Compound: CC(=O)OC(C[C@H](C)[C@@H]1CC[C@]2(C)C3=CCC4C(C)(C)C(=O)CC[C@]4(C)C3CCC12C)C1OC1(C)C (some centres undefined)
- TGI [1]: 25.7 µM
- TGI [2]: > 100 µM
- TGI [4]: > 100 µM
- TGI [5]: > 100 µM
- TGI [6]: > 100 µM
- TGI [8]: > 100 µM
- TGI [9]: > 100 µM
- TGI [10]: 35.4 µM
- TGI [11]: > 100 µM
- TGI [13]: 55.4 µM
- TGI [16]: > 100 µM
- TGI [17]: > 100 µM
- TGI [19]: 31.7 µM
- TGI [20]: 24.3 µM
- TGI [21]: 48.3 µM
- TGI [22]: 66.8 µM
- TGI [23]: 28.6 µM
- TGI [24]: 88.2 µM
- TGI [25]: > 100 µM
- TGI [27]: 43.2 µM
- TGI [28]: 42.7 µM
- TGI [29]: 43.8 µM
- TGI [31]: 36.5 µM
- TGI [34]: 77.6 µM
- TGI [36]: 30.7 µM
- TGI [37]: 83.2 µM
- TGI [38]: 89.2 µM
- TGI [40]: > 100 µM
- TGI [41]: 31.9 µM
- TGI [42]: > 100 µM
- TGI [43]: 29 µM
- TGI [44]: > 100 µM
- TGI [45]: 25.8 µM
- TGI [46]: > 100 µM
- TGI [47]: > 100 µM
- TGI [48]: 42.7 µM
- TGI [49]: 47.4 µM
- TGI [50]: > 100 µM
- TGI [51]: 86.4 µM
- TGI [52]: > 100 µM
- TGI [54]: > 100 µM
- TGI [57]: > 100 µM
- TGI [58]: 31.8 µM
- TGI [59]: > 100 µM
- TGI [60]: 94.1 µM
- TGI [61]: > 100 µM
- TGI [62]: > 100 µM
- TGI [64]: 75.1 µM
- TGI [65]: 29.5 µM
- TGI [66]: > 100 µM
- TGI [67]: > 100 µM
